What all share (format): binding
The subject of test [1] is RNA duplex 1 (5′-rCrGrCrUrArArArUrCrG-3′ & 5′-rCrGrArUrUrUrArGrCrG-3′). Nature of the test: RNA thermal denaturation (Tm) by UV hyperchromicity at 260 nm with synthetic peptides/depsipeptides, RNA duplex 1. The settings on record: 100 mM NaCl; for RNA duplex 1 Tm: observed Tm with peptide/depsipeptide 100 µM, mean ± SD of 2-4 independent experiments; for RNA duplex 1 ΔTm: peptide/depsipeptide 100 μM, RNA 2.5 μM each strand, mean of 2–4 replicates. The method, then: Each sample contained RNA duplex 1 (5′-rCrGrCrUrArArArUrCrG-3′ and 5′-rCrGrArUrUrUrArGrCrG-3′, 2.5 μM strand) and peptide/depsipeptide (100 μM) in buffered solution (10 mM phosphate, 100 mM NaCl, pH 7.0 or 10 mM acetate, 100 mM NaCl, pH 5.0). a Structures of depsipeptides used to systematically characterize cationic side chain effects on RNA duplex stability. Lactic acid residues are highlighted. Ac acetyl, Aba acetamidobenzoic acid, which was appended to the N-terminus to increase UV absorbance. b Structures of the Fmoc-didepsipeptide building blocks used for solid-phase synthesis of depsipeptide sequences. Fmoc fluorenylmethoxycarbonyl. c Comparative effects of oligo-didepsipeptide sequences 2–6 and analogous oligo-dipeptide and on the Tm of the RNA duplex (number of independent measurements: n = 3 for Arg and Lys sequences; n = 2 for His and Dab sequences; n = 4 for Orn sequences). The shaded areas correspond to the mean ± SD Tm measured for the RNA duplex alone (n = 16 independent measurements). Data are shown as a scatter plot with mean ± SD. d Comparative effects on RNA duplex Tm of depsipeptide sequences containing a single backbone ester (number of independent measurements: n = 3 for Arg; n = 2 for His, Orn, and Dab; n = 4 for Lys), relative to RNA duplex alone (n = 16 independent measurements). Data are shown as a scatter plot with mean ± SD. e To assess the impact of different cationic side chains on depsipeptide degradation rates, depsipeptides 7–11 (40 μM) were incubated at 37 °C in buffer (100 mM HEPES, 10 mM NaCl, pH 7.3). After 5 min, the reactions were quenched by the addition of 3% TFA, and samples were analyzed by HPLC.
(§1) Prior to Tm analyses, RNA samples were annealed in the appropriate buffer by heating to 75 °C and slowly cooling to room temperature. Depsipeptide/peptide was added to the annealed RNA and incubated at 4 °C for 20 min prior to carrying out the analysis. For analyses involving dry-down reaction mixtures, the Tm was determined by monitoring fluorescence increase upon melting of a fluorophore/quencher-labeled RNA duplex (5′-rCrGrArUrUrUrArGrCrG-/3IABkFQ/-3′ and 3′-rGrCrUrArArArUrCrGrC-FAM-5′) using a BioRad CFX Connect rtPCR instrument with a heating ramp of 1 °C/min and 20 μL final sample volumes. For analyses involving pure, synthetic compounds, the Tm of the RNA was determined by monitoring UV hyperchromicity at 260 nm using a Varian Cary Bio-100 spectrophotometer, with a heating ramp of 1 °C/min and 0.5- or 1-cm pathlength cells. The following RNA sequences were used: RNA duplex 1 = 5′-rCrGrCrUrArArArUrCrG-3′ and 5′-rCrGrArUrUrUrArGrCrG-3′; RNA duplex 2 = 5′-rArArArArUrUrUrArUrArUrUrArUrUrA-3′ and 5′-rUrArArUrArArUrArUrArArArUrUrUrU-3′; RNA duplex 3 = 5′-rArArCrGrUrArUrArCrGrUrU-3′ (palindromic); and H26a RNA = 5′-rArUrGrArGrUrArArCrCrGrUrArArGrGrUrGrArArArUrU-3′. RNA was present in each assay at a final concentration of 2.5 μM of the folded structure (2.5 μM each strand for duplex 1 and duplex 2, 5.0 μM palindromic strand for duplex 3, 2.5 μM strand for H26a RNA). Tm values were determined by nonlinear fitting of the melting curves using GraphPad Prism 8.2.1 for duplex 1 and H26a, or by finding the maximum of the first derivative of the curve using the Varian Cary Bio-100 software for duplex 2 and duplex 3.

For test [2], the system named is RNA duplex 1. Nature of the test: CD analysis of RNA duplex with peptides/depsipeptides. The settings on record: RNA duplex 5 µM, peptide/depsipeptide 0–10 µM, MES-TEA buffer (60 mM). An excerpt: The gel was cropped at the edges for clarity. […] […] Red and blue colors of the filled circles correspond to curves of the same color in panel (c). […] […] Scans were from 320 nm to 220 nm with a bandwidth of 5 nm, data pitch of 0.2 nm, and scan rate of 50 nm/min with three accumulations. […] Data were collected in independent triplicates and the data were averaged. Finally, data were smoothed and plotted using Matlab.

Test [3] has as its system RNA duplex 2 (5′-rArArArArUrUrUrArUrArUrUrArUrUrA-3′ and 5′-rUrArArUrArArUrArUrArArArUrUrUrU-3′). Put plainly: RNA thermal denaturation (Tm) by UV hyperchromicity, RNA duplex 2. The settings on record: for RNA duplex 2 Tm: observed Tm with peptide/depsipeptide 100 µM, pH 7.0, RNA alone 33.7 ± 0.7, mean ± SD of 2-4 independent experiments; for RNA duplex 2 ΔTm: peptide/depsipeptide 100 μM, RNA 2.5 μM each strand, pH 7.0, 10 mM phosphate, 100 mM NaCl, mean of 2–4 replicates. The method, then:
as §1, with “3. Both methods of determining the Tm gave similar values for a given denaturation curve.” for “3.”

In test [4] the test system is RNA duplex 3 (5′-rArArCrGrUrArUrArCrGrUrU-3′, palindromic). Nature of the test: RNA thermal denaturation (Tm) by UV hyperchromicity, RNA duplex 3. The settings on record: for RNA duplex 3 Tm: observed Tm with peptide/depsipeptide 100 µM, pH 7.0, RNA alone 48.6 ± 0.7, mean ± SD of 2-4 independent experiments; for RNA duplex 3 ΔTm: peptide/depsipeptide 100 μM, 5.0 μM palindromic strand, pH 7.0, 10 mM phosphate, 100 mM NaCl, mean of 2–4 replicates. The method, then: as §1, with “3. Both methods of determining the Tm gave similar values for a given denaturation curve.” for “3.”

Test [5] relates to H26a RNA (5′-rArUrGrArGrUrArArCrCrGrUrArArGrGrUrGrArArArUrU-3′). Nature of the test: RNA thermal denaturation (Tm) by UV hyperchromicity, H26a RNA hairpin. The settings on record: for H26a RNA Tm: observed Tm with peptide/depsipeptide 100 µM, pH 7.0, RNA alone 53.4 ± 0.5, mean ± SD of 2-4 independent experiments; for H26a RNA ΔTm: peptide/depsipeptide 100 μM, RNA 2.5 μM strand, pH 7.0, 10 mM phosphate, 100 mM NaCl, mean of 2–4 replicates. The method, then:
as §1, with “3. Both methods of determining the Tm gave similar values for a given denaturation curve.” for “3.”

The mark [6] stands for this setting: pH 5.0, 10 mM acetate, RNA alone 41.5 ± 0.3.
Where [7] appears, read: pH 7.0, 10 mM phosphate, RNA alone 43.8 ± 0.4.
Where [8] appears, read: 10 mM acetate, pH 5.0, vs RNA alone at pH 5.0.
Setting [9] is: 10 mM phosphate, pH 7.0, vs RNA alone at matched pH.

Non-standard residues stand in square brackets, D forms with d. Residues, ends and D or L forms follow the SMILES beside them. Dab = NCC[C@H](N)C(=O)O

Regarding “Aba-His-lac-His-lac-His-lac-His-lac-His-lac-His-lac-His-lac-His-lac-NH2 [compound 3]”, the entries for the “RNA duplex 1 Tm” value in test [1] (setting [6]) and in test [1] (setting [7]) were 46.1 ± 0.7 °C and 44.3 ± 1.0 °C, respectively. Besides, the “RNA duplex 1 ΔTm” value in test [1] (setting [8]) is 4.6 °C; in test [1] (setting [9]), 0.5 °C.
In the case of `CC(=O)N[C@@H](Cc1ccc(O)cc1)C(=O)NCC(=O)N[C@@H](C)C(=O)N[C@@H](CCN)C(=O)N[C@@H](CCCCN)C(=O)N[C@@H](C)C(=O)N[C@@H](CCN)C(=O)N[C@@H](CCCCN)C(=O)N[C@@H](C)C(=O)N[C@@H](CCN)C(=O)N[C@@H](CCCCN)C(=O)N[C@@H](C)C(=O)N[C@@H](CCN)C(=O)N[C@@H](CCCCN)C(=O)N[C@@H](C)C(=O)N[C@@H](CCN)C(=O)N[C@@H](CCCCN)C(N)=O` (Ac-YGA[Dab]KA[Dab]KA[Dab]KA[Dab]KA[Dab]K-NH2), the “changes in CD spectra of the RNA duplex upon addition” value in test [2] is reported as “physical association”.
In the case of “Aba-Gly-Ala-Dab-Lys-Ala-Dab-Orn-lac-Dab-Lys-Ala-Dab-Lys-NH2 [compound 10]”, in test [3], the “RNA duplex 2 Tm” value was 41.8 ± 0.5 °C and the “RNA duplex 2 ΔTm” value was 8.2 °C. Also, in test [4], the “RNA duplex 3 Tm” value amounted to 51.1 ± 1.3 °C and the “RNA duplex 3 ΔTm” value is 2.5 °C. Moreover, in test [5], the “H26a RNA Tm” value amounted to 56.9 ± 0.1 °C and the “H26a RNA ΔTm” value came out at 3.5 °C. Further, the “RNA duplex 1 Tm” value in test [1] (setting [7]) is 48.7 ± 1.2 °C. For the same compound, the “RNA duplex 1 ΔTm” value in test [1] (setting [9]) was found to be 4.9 °C.
As for “Aba-Lys-lac-Lys-lac-Lys-lac-Lys-lac-Lys-lac-Lys-lac-Lys-lac-Lys-lac-NH2 [compound 4]”, in test [3], the “RNA duplex 2 Tm” value was 35.2 ± 0.1 °C and the “RNA duplex 2 ΔTm” value was 1.5 °C. Further, in test [4], the “RNA duplex 3 Tm” value was 52.5 ± 0.7 °C and the “RNA duplex 3 ΔTm” value was determined as 3.9 °C. Moreover, in test [5], the “H26a RNA Tm” value was found to be 59.7 ± 0.6 °C and the “H26a RNA ΔTm” value was 6.3 °C. Besides, the “RNA duplex 1 Tm” value in test [1] (setting [7]) is 46.4 ± 0.1 °C. The “RNA duplex 1 ΔTm” value in test [1] (setting [9]) turned out to be 2.6 °C.
With “Aba-Arg-lac-Arg-lac-Arg-lac-Arg-lac-Arg-lac-Arg-lac-Arg-lac-Arg-lac-NH2 [compound 2]”, the “RNA duplex 1 Tm” value in test [1] (setting [7]) worked out at 49.1 ± 0.7 °C. The “RNA duplex 1 ΔTm” value in test [1] (setting [9]) was found to be 5.3 °C.
For “Aba-Orn-lac-Orn-lac-Orn-lac-Orn-lac-Orn-lac-Orn-lac-Orn-lac-Orn-lac-NH2 [compound 5]”, in test [3], the “RNA duplex 2 Tm” value stood at 34.6 ± 0.7 °C and the “RNA duplex 2 ΔTm” value was 1.0 °C. In test [4], the “RNA duplex 3 Tm” value worked out at 49.1 ± 0.1 °C and the “RNA duplex 3 ΔTm” value is 0.5 °C. Also, in test [5], the “H26a RNA Tm” value was 52.3 ± 0.6 °C and the “H26a RNA ΔTm” value is −1.1 °C. Moreover, in test [1] (setting [7]), the “RNA duplex 1 Tm” value is 43.8 ± 0.9 °C. The “RNA duplex 1 ΔTm” value in test [1] (setting [9]) was 0.0 °C.
Take “Aba-Gly-Ala-Dab-Lys-Ala-Dab-Arg-lac-Dab-Lys-Ala-Dab-Lys-NH2 [compound 7]”: in test [3], the “RNA duplex 2 Tm” value amounted to 41.8 ± 0.6 °C and the “RNA duplex 2 ΔTm” value was found to be 8.1 °C. In test [4], the “RNA duplex 3 Tm” value worked out at 60.6 ± 0.8 °C and the “RNA duplex 3 ΔTm” value came out at 12.0 °C. Besides, in test [5], the “H26a RNA Tm” value came out at 64.8 ± 0.1 °C and the “H26a RNA ΔTm” value was determined as 11.4 °C. In addition, the “RNA duplex 1 Tm” value in test [1] (setting [7]) worked out at 52.5 ± 0.3 °C. For the same compound, the “RNA duplex 1 ΔTm” value in test [1] (setting [9]) came out at 8.7 °C.
“Aba-Gly-Ala-Dab-Lys-Ala-Dab-His-lac-Dab-Lys-Ala-Dab-Lys-NH2 [compound 8]”: the “RNA duplex 1 Tm” value in test [1] (setting [6]) came to 52.6 ± 0.2 °C; in test [1] (setting [7]), 48.9 ± 1.4 °C. The entries for the “RNA duplex 1 ΔTm” value in test [1] (setting [8]) and in test [1] (setting [9]) were 11.1 °C and 5.1 °C, respectively.
Take “Aba-Gly-Ala-Dab-Lys-Ala-Dab-Dab-lac-Dab-Lys-Ala-Dab-Lys-NH2 [compound 11]”: the “RNA duplex 1 Tm” value in test [1] (setting [7]) is 48.7 ± 0.2 °C. Moreover, the “RNA duplex 1 ΔTm” value in test [1] (setting [9]) was found to be 4.9 °C.
On to “Aba-Dab-lac-Dab-lac-Dab-lac-Dab-lac-Dab-lac-Dab-lac-Dab-lac-Dab-lac-NH2 [compound 6]”, for which, in test [3], the “RNA duplex 2 Tm” value amounted to 36.2 ± 0.1 °C and the “RNA duplex 2 ΔTm” value amounted to 2.6 °C. Besides, in test [4], the “RNA duplex 3 Tm” value was found to be 48.2 ± 0.1 °C and the “RNA duplex 3 ΔTm” value was −0.4 °C. Besides, in test [5], the “H26a RNA Tm” value stood at 53.9 ± 0.2 °C and the “H26a RNA ΔTm” value came to 0.5 °C. For the same compound, in test [1] (setting [7]), the “RNA duplex 1 Tm” value turned out to be 44.2 ± 0.2 °C. The “RNA duplex 1 ΔTm” value in test [1] (setting [9]) was 0.4 °C.
